Test results published in patent US20140011799A1 (Bristol-Myers Squibb Company, priority 2012, published 2014).
pIC50: −log10 of the molar value.

Columns and labels:
Endothelial lipase (EL) = biological target: T1, Endothelial lipase (EL) (Homo sapiens, UniProt Q9Y5X9); assay: Endothelial lipase (EL) enzymatic assay, fluorescent substrate A10070 in DMPG vesicles; type: biochemical; conditions: EL from conditioned media of HT-1080 cells; compound preincubated 30 min at 37° C; read-out: EL IC50
T1 construct: HT-1080 cells that were transformed using RAGE technology (Athersys) to overexpress endogenous EL; endogenous in cells; conditioned medium used
T1 sequence (Q9Y5X9 21-500): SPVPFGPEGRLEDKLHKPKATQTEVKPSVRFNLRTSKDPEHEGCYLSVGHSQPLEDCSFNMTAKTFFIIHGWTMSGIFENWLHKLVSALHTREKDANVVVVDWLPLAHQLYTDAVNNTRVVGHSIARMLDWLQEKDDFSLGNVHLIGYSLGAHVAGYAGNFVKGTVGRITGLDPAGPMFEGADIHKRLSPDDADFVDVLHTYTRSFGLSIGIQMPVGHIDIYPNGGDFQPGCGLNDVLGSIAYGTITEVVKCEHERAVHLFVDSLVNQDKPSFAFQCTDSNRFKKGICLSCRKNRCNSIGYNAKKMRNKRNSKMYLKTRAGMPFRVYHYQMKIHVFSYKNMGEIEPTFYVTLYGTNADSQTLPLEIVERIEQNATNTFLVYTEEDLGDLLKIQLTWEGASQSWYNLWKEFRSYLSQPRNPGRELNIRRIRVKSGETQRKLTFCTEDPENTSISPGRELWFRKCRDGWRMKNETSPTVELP
Summary of the method: (§1)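 Vesicles prepared: A10070 dried with DMPG, resuspended in HEPES pH 8.0/NaCl/EDTA, sonicated on ice. Enzyme incubated with compound 30 min at 37° C. Reaction started with 1:10 diluted vesicles. Fluorescence (490/530 nm) followed 60 min; slope from 300–900 secs gives rate.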

hepatic lipase (HL) = biological target: T2, hepatic lipase (HL) (Homo sapiens, UniProt P11150); assay: Hepatic lipase (HL) enzymatic assay, fluorescent substrate A10070 in DMPG vesicles; type: biochemical; conditions: HL partially purified from conditioned media of COS cells; compound preincubated 30 min at 37° C; read-out: HL IC50
T2 construct: made in house; host or cells: COS cells (conditioned medium, partially purified)
T2 sequence (P11150 23-499): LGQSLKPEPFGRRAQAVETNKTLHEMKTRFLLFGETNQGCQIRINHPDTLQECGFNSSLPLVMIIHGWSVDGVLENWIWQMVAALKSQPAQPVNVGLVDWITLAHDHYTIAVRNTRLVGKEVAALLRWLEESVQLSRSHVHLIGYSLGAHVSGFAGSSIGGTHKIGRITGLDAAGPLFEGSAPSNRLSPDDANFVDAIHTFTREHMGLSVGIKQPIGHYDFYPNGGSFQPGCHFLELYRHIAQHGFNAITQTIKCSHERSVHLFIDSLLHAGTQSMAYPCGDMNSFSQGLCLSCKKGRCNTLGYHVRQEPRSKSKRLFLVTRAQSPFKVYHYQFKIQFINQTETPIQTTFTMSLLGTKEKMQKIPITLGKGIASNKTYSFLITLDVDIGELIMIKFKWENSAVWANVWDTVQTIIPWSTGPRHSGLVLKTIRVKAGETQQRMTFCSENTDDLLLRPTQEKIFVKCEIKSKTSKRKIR
Summary of the method: as §1

Compound	pIC50 (Endothelial lipase (EL))	pIC50 (hepatic lipase (HL))
Cc1noc(C)c1-c1ccc2sc(C(c3nnc(CNS(N)(=O)=O)o3)S(C)(=O)=O)nc2c1 (stereo not drawn) [Example 248, N-[(5-{[5-(dimethyl-1,2-oxazol-4-yl)-1,3-benzothiazol-2-yl] (methanesulfonyl)methyl}-1,3,4-oxadiazol-2-yl)methyl] aminosulfonamide]	8.30	7.59
Cn1cc(-c2ccc3nc(C(c4nnc(CNS(N)(=O)=O)o4)S(=O)(=O)CCC(=O)O)sc3c2)cn1 (stereo not drawn) [Example 174, 3-(((6-(1-Methyl-1H-pyrazol-4-yl)-1,3-benzothiazol-2-yl)(5-((sulfamoylamino)methyl)-1,3,4-oxadiazol-2-yl)methyl)sulfonyl)propanoic acid]	7.96	6.91
CCOCC(=O)NCc1nnc(C(c2nc3ccc(-c4ccccc4)cc3s2)S(C)(=O)=O)o1 (stereo not drawn) [Example 157, 2-ethoxy-N-((5-((methylsulfonyl)(6-phenyl-1,3-benzothiazol-2-yl)methyl)-1,3,4-oxadiazol-2-yl)methyl)acetamide]	6.65	7.47
CS(=O)(=O)C(c1nnc(CNS(N)(=O)=O)o1)c1nc2cc(-c3ccc(F)nc3)ccc2s1 (stereo not drawn) [Example 233, N-[(5-{[5-(6-fluoropyridin-3-yl)-1,3-benzothiazol-2-yl] (methanesulfonyl)methyl}-1,3,4-oxadiazol-2-yl)methyl]aminosulfonamide]	9.00	7.74
NS(=O)(=O)NCc1nnc(C(c2nc3ccc(-c4ccccc4)cc3s2)S(=O)(=O)CC(O)CO)o1 (mixture of isomers) [Example 171, N-((5-(((2,3-Dihydroxypropyl)sulfonyl)(6-phenyl-1,3-benzothiazol-2-yl)methyl)-1,3,4-oxadiazol-2-yl)methyl)sulfamide]	> 8.00	> 8.00
COc1cc2nc(C(c3nnc(CNS(=O)(=O)NC(=O)OC(C)(C)C)o3)S(C)(=O)=O)sc2cc1-c1cnn(C)c1 (stereo not drawn) [Example 159, 2-methyl-2-propanyl {[(5-{[5-methoxy-6-(1-methyl-1H-pyrazol-4-yl)-1,3-benzothiazol-2-yl](methylsulfonyl)methyl}-1,3,4-oxadiazol-2-yl)methyl]sulfamoyl}carbamate]	7.89	7.85
CS(=O)(=O)C(c1nnc(CNS(N)(=O)=O)o1)c1nc2ccc(-c3cccc(C(=O)Nc4nnc(C(F)(F)F)o4)c3)cc2s1 (stereo not drawn) [Example 253, 3-{2-[methanesulfonyl({5-[(sulfamoylamino)methyl]-1,3,4-oxadiazol-2-yl})methyl]-1,3-benzothiazol-6-yl}-N-[5-(trifluoromethyl)-1,3,4-oxadiazol-2-yl] benzamide]	8.15	7.21
COCc1ccc(-c2ccc3nc(C(c4nnc(CNS(N)(=O)=O)o4)S(=O)(=O)Cc4cccc(F)c4)sc3c2)cc1 (stereo not drawn) [Example 241, N-({5-[(3-fluorophenyl)methanesulfonyl({6-[4-(methoxymethyl)phenyl]-1,3-benzothiazol-2-yl})methyl]-1,3,4-oxadiazol-2-yl}methyl)aminosulfonamide]	9.00	9.00
CC1(Cc2nnc(C(c3nc4ccc(-c5cccc(C(=O)N6CC[C@H](F)C6)c5)cc4s3)S(C)(=O)=O)o2)NC(=O)NC1=O (stereo partly drawn) [Example 228, 5-({5-[(6-{3-[(3S)-3-fluoropyrrolidine-1-carbonyl]phenyl}-1,3-benzothiazol-2-yl) (methanesulfonyl)methyl]-1,3,4-oxadiazol-2-yl}methyl)-5-methyl-imidazolidine-2,4-dione]	6.94	6.77
O=C(Cc1nnc(C(c2nc3ccc(-c4ccc(C(=O)N5CCOCC5)cc4)cc3s2)S(=O)(=O)Cc2ccccc2)o1)NCC1(O)CCC1 (stereo not drawn) [Example 178, 2-(5-((benzylsulfonyl)(6-(4-(4-morpholinylcarbonyl)phenyl)-1,3-benzothiazol-2-yl)methyl)-1,3,4-oxadiazol-2-yl)-N-((1-hydroxycyclobutyl)methyl) acetamide]	> 8.00	6.56
CS(=O)(=O)C(c1nnc(CNS(N)(=O)=O)o1)c1nc2ccc(-c3cccc(C(=O)NCCO)c3)cc2s1 (stereo not drawn) [Example 257, N-(2-hydroxyethyl)-3-{2-[methanesulfonyl({5-[(sulfamoylamino)methyl]-1,3,4-oxadiazol-2-yl})methyl]-1,3-benzothiazol-6-yl}benzamide]	8.00	7.54
NS(=O)(=O)NCc1nnc(C(c2nc3ccc(-c4ccc(F)nc4)cc3s2)S(=O)(=O)Cc2ccc(C(F)(F)F)cc2)o1 (stereo not drawn) [Example 238, N-[(5-{[6-(6-fluoropyridin-3-yl)-1,3-benzothiazol-2-yl] [4-(trifluoromethyl)phenyl]methanesulfonylmethyl}-1,3,4-oxadiazol-2-yl)methyl]aminosulfonamide]	8.40	7.74
CS(=O)(=O)C(c1nnc(C[C@@H]2NS(=O)(=O)NC2=O)o1)c1nc2ccc(-c3ccc(C(=O)N4CCOCC4)cc3)cc2s1 (stereo partly drawn) [Example 111, (4S)-4-((5-((methylsulfonyl) (6-(4-(4-morpholinylcarbonyl)phenyl)-1,3-benzothiazol-2-yl)methyl)-1,3,4-oxadiazol-2-yl)methyl)-1,2,5-thiadiazolidin-3-one 1,1-dioxide]	> 8.00	6.20
CS(=O)(=O)C(c1nnc(CC2SC(=O)NC2=O)o1)c1nc2ccc(C#N)cc2s1 (stereo not drawn) [Example 190, 2-((5-((2,4-Dioxo-1,3-thiazolidin-5-yl)methyl)-1,3,4-oxadiazol-2-yl)(methylsulfonyl)methyl)-1,3-benzothiazole-6-carbonitrile]	> 8.00	6.38
COc1cc(-c2ccc3nc(C(c4nnc(CNS(N)(=O)=O)o4)S(=O)(=O)Cc4ccccc4)sc3c2)ccn1 (stereo not drawn) [Example 137, N-((5-((benzylsulfonyl)(6-(2-methoxy-4-pyridinyl)-1,3-benzothiazol-2-yl)methyl)-1,3,4-oxadiazol-2-yl)methyl) sulfamide]	> 8.00	> 8.00
CS(=O)(=O)C(c1nnc(CNS(N)(=O)=O)o1)c1nc2ccc(-c3cccc(C(=O)N4CCC(F)(F)CC4)c3)cc2s1 (stereo not drawn) [Example 254, N-{[5-({6-[3-(4,4-difluoropiperidine-1-carbonyl)phenyl]-1,3-benzothiazol-2-yl} (methanesulfonyl)methyl)-1,3,4-oxadiazol-2-yl]methyl} aminosulfonamide]	8.30	7.77
COC1CN(C(=O)c2cccc(-c3ccc4nc(C(c5nnc(CC6(C)NC(=O)NC6=O)o5)S(C)(=O)=O)sc4c3)c2)C1 (stereo not drawn) [Example 209, 5-({5-[methanesulfonyl({6-[3-(3-methoxyazetidine-1-carbonyl)phenyl]-1,3-benzothiazol-2-yl})methyl]-1,3,4-oxadiazol-2-yl}methyl)-5-methyl-imidazolidine-2,4-dione]	7.74	6.64
C=CCS(=O)(=O)C(c1nnc(CNS(N)(=O)=O)o1)c1nc2ccc(-c3ccccc3)cc2s1 (stereo not drawn) [Example 120, N-((5-((allylsulfonyl)(6-phenyl-1,3-benzothiazol-2-yl)methyl)-1,3,4-oxadiazol-2-yl)methyl)sulfamide]	> 8.00	> 8.00
